According to US10149644B2, “Curcumin derivatives for amyloid-β plaque imaging” (The General Hospital Corporation, priority 2008, dated 2018):
“Also recorded” adds a separate entry of the source.

What was measured:
[1] = target: T1, Aβ40 aggregates (Homo sapiens, UniProt P05067); assay: In vitro Aβ aggregates binding constant measurement
T1 construct: Synthetic amyloid-b protein (1-40) was purchased from rPeptide; purchased rPeptide (Bogart, Ga.)
Protocol: […] The Kd binding curve was generated by software Prism 3.0 with nonlinear one-site binding regression.
Binding constant (Kd) of CRANAD-2 towards Aβ aggregates was measured by fluorescence intensity (F.I.) with various concentrations of the prob.

[2] = target: T1, Aβ40 aggregates; assay: Fluorescence response of probe to Aβ40 aggregates, Aβ40 monomer and PBS; format: binding
Source text: We compared the fluorescence intensity of CRANAD-2 with PBS (pH 7.4), Aβ40 peptide, and Aβ40 aggregates generated from Cu^2+ induced aggregation.

[3] = Log P measurement (octanol/water); format: physicochemical
Protocol: Log p measurement was performed according to the reported procedure {35}. CRANAD-2 (0.125 mM) in Octanol 2.0 mL was subjected to partition with octanol-saturated water 2.0 mL. The resulting mixture was stirred vigorously for 5 min., and centrifuged at 2,000 rpm for 5 min. The octanol layer was separated from water layer, and its fluorescence spectrum was recorded (excited at 590 nm). The above water layer was partitioned with water-saturated octanol 2.0 mL, and the octanol layer was separated after 5 min. vigorous stirring and 5 min. centrifuge at 2,000 rpm, and its spectrum was recorded. The log P value was calculated by the fluorescence intensity ratio at 690 nm for the above two octanol extractions.
In order for the probe to cross blood brain barrier, its lipophilicity (log P) should be within 2-5 range.

[4] = test system: Aβ plaques; assay: Histological staining of Tg2576 mice brain slices; settings: co-staining with Thioflavin S
Protocol: Tg2576 mice brain tissue was cut into 25 micron slices. The slices were fixed with 4% formalin for 5 min and washed with PBS buffer twice. For Thioflavin S staining the slices were dipped into thioflavin S solution (1.0% in 50% ethanol) for 5 min., then differentiated in 70% ethanol for 5 min., rinsed with distilled water twice and mounted using Vecta shield mounting medium. Similar procedure was used to incubate sliced tissue with our probe. Histological slide was treated with, 0.01% CRANAD-2 in 10% acetone, 40% ethanol and 50% water for 15 min. For co-staining: the procedure was similar. The slices were first stained with thioflavin S, and washed with 70% ethanol for 5 min, then stained with the solution of CRANAD-2.

[5] = BBB penetration and blood/brain clearance; format: in vivo, Balb/c mice; settings: 10 mg/kg i.v.
Protocol: To test the BBB penetrating ability of the probe, Balb/c mice were used (n=3). […] Mice were perfused with saline solution and the brains were excised at 30 min., 1 h, 2 h, and 4 h after injection. Each brain sample was homogenized with 2.0 ml water and 3.0 ml ethyl acetate, and the homogenate was centrifuged for 5 min at 2,500 rpm. The fluorescence intensities of the ethyl acetate supernatant were recorded. The actual amounts (pmol) of the extracted probe were calculated according to the standard curve of CRANAD-2 in ethyl acetate.
Prior to perfusion, blood samples were taken at each time point to monitor the probe blood clearance. The blood samples were diluted with PBS buffer to 1.0 mL, followed by ethyl acetate (2.0 mL) extraction. The extractions were subjected to fluorescence intensity measurement, and the actual amounts of the probe for each mouse were calculated as the procedure for brain extraction described above.
In addition, to follow the probe clearance the inventors drew blood samples at each time point. […] LC-MS results also confirmed that the major component of the ethyl acetate extraction was CRANAD-2.

[6] = test system: senile plaques; assay: Ex vivo histological correlation; format: in vivo, mice; settings: 19-month old transgenic mice, 10 mg/kg i.v.
Protocol: 19 month-old mouse was injected CRANAD-2 (10.0 mg/kg), and was sacrified after perfusion with 4% formaldehyde. The brain was taken and embedded in OCT. For histology, the brain was sliced into 25μ slices, and co-stained with thioflavin S as described above. To obtain ex vivo confirmation of the probe binding, mice at different ages were i.v injected with 10 mg/kg of CRANAD-2 probe, perfused and scarified at 1 h after injection.

[7] = target: T1, Aβ40 aggregates; assay: Aβ aggregates detection in solution by fluorescence spectrum; format: binding; settings: 250 nM compound, 250 nM Aβ40 aggregates, PBS, one minute
Protocol: They then incubated 250 nM of the compounds with 250 nM of Aβ40 aggregates (calculation based on monomer) in PBS for one minute, and then measured the fluorescence spectra of the solutions.

[8] = Fluorescence emission properties of the probes; format: physicochemical
Protocol: Reagents used for synthesis were purchased from Aldrich without further purification. Column chromatography was performed on silica gel (SiliCycle Inc., 60 Å, […]) slurry packed into glass columns. Thioflavin S was purchased from Aldrich. Synthetic amyloid-b protein (1-40) was purchased from rPeptide (Bogart, Ga., 30622) and aggregates for in vitro studies were generated followed the reported procedure. BSA was purchased from Sigma, and human serum was obtained from Invitrogen (type AB). ^1H and ^13C NMR spectra were recorded at 400 MHz and 100 MHz respectively, and are reported in ppm downfield from tetramethylsilane. Fluorescence studies were carried out with F-4500 Fluorescense Spectrophotometer. Fluorescence quantum yields were determined using aqueous solution of Cy5.5-maleimide as a standard (y=0.23). High resolution mass spectra were obtained at the Harvard University, Department of Chemistry Instrumentation Facility. Transgenic Tg2576 mice {45} and littermates were purchased from Taconic Farm, Balb/c mice for BBB penetrating test were obtained from Jackson Laboratory, and the experiment procedure was approved by Massachusetts General Hospital. In vivo imaging was recorded on Kodak Imaging Station 2000MM.
Furthermore, by comparing the fluorescence intensity in methanol, the quantum yield of CRANAD-2 was significant higher than that of curcumin (FIG. 2). […] Additionally, these modifications produced a large stokes shift and improved quantum yield of CRANAD-2. The synthesized compound produced the longest emission and the largest stokes shift among the existing probes for senile plaque detection {3}.

T1 sequence (P05067 672-711 limits assumed): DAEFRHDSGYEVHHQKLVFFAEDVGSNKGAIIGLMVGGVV

Affinity to Aβ aggregates [1]: high affinity to Aβ aggregates | Kd ([1]; Aβ40 aggregates in PBS, fluorescence intensity, nonlinear one-site regression, read-out: Binding constant (Kd) towards Aβ aggregates): 38.7 ± 2.77 nM | Quantum yield in PBS buffer ([2]; PBS buffer): 0.6% | Quantum yield in PBS ([2]; PBS, given as fraction): 0.006 | Quantum yield after binding to Aβ40 aggregates ([2]; bound to Aβ40 aggregates, given as fraction): 0.40 | Quantum yield upon binding to aggregates ([2]; bound to aggregates): 40% | Fluorescence intensity increase in the presence of Aβ40 aggregates ([2]; vs PBS): 70 fold | logP [3]: 3 | Clearance from blood [5]: rapid clearance from blood | Clearance from the brain vs blood [5]: significantly slower | BBB penetrating ability ([5]; brain homogenate, fluorescence, HPLC, LC-MS): capability to cross BBB | Fluorescence intensity change with Aβ40 aggregates [7]: intensity increases | Wavelength shift with Aβ40 aggregates [7]: wavelength blue-shifts | Stoke shift in PBS ([8]; PBS only): 140 nm | Stoke shift in PBS with Aβ aggregates ([8]; PBS with Aβ aggregates): 70 nm | λmax(em) ([8]; probe alone, methanol (FIG. 2)): 760 nm | λmax(ex) ([8]; probe alone, methanol (FIG. 2)): 640 nm
Compound: CN(C)c1ccc(/C=C/C2=CC(/C=C/c3ccc(N(C)C)cc3)=[O+][B-](F)(F)O2)cc1 [CRANAD-2]
Fluorescence intensity with Aβ40 peptide monomer vs PBS ([2]; Aβ40 monomer): did not observe any significant difference | Staining of Aβ plaques in brain tissue [4]: specificity towards Aβ plaques; also recorded: specific staining with Aβ plaques | Labelling of senile plaques ex vivo after i.v. injection [6]: senile plaques were observed
